The numbers were not newly measured in patent US10828311B2, “Controlled release compositions and their methods of use” (BAYER NEW ZEALAND LTD, priority 2012, dated 2020), which cites them from elsewhere.

The term MIC90 denotes an inhibitory concentration at the 90% level, which refers to growth in some studies and to a panel of isolates in others.

In the series the test system is microbes. Particulars: for Cloxacillin in New Zealand.

The structures appear in SMILES notation. ≈ marks a conversion by molar mass, not a printed value.

In the case of `Cc1onc(-c2ccccc2Cl)c1C(=O)N[C@@H]1C(=O)N2[C@@H]1SC(C)(C)[C@@H]2C(=O)O` [Cloxacillin, cloxacillin], the MIC90 was 0.5 µg/mL (≈ 1.15 µM).
